# Earlier results as cited in publication PMC4324444 (ACS Chemical Biology, 2014).
# Molecular target: XIAP
# Details: read-out: binding affinity to XIAP (Ki)
structure (smiles),measurement,value
CN[C@@H](C)C(=O)N[C@H](C(=O)N1CC[C@H](C)[C@H]1C(=O)Nc1ccccc1-c1ncccn1)C1CCCCC1 [CS3],Ki,> 30 µM
